What was measured:
[1] = test system: sensitive L1210 murine leukemia cells; test: Multiple drug resistance, 3H-Thymidine uptake; type: cell-based; conditions: Mus musculus, daunorubicin alone
Protocol: (§1) Multiple drug resistance (MDR) was tested in vitro using resistant and sensitive L1210 murine leukemia cells.
(§2) The final concentration of daunorubicin in each well was 0, 0.3, 1, 3, 10, 30, 100 or 1000 ng/ml. […] Fifty microliters of each daunorubicin concentration was added to one well of a flat bottom 96-well culture plate. […] Each drug combination was tested in triplicate.
(§3) The resistant and sensitive cells to be added to each well were grown overnight in a CO2 incubator at 37° C. in RPMI-1640 (10% fetal calf serum and 1% pen-strep). The cells were centrifuged at 1000 rpm for 10 minutes. The cell pellet was resuspended in RPMI-1640 (20% fetal calf serum and 2% pen-strep) and adjusted to 1×10^5 cells/ml. The cells were then added to the wells (100 μl (1×10^4 cells)/well) containing the drug combinations and incubated for 24 hours at 37° C. in a CO2 incubator. Positive control wells contained only cells and media and negative control wells contained cells, media, and 20 μl of 1.5M Tris buffer.
(§4) After 20 hours of incubation, the cells were pulsed with 0.5μ Cu of ^3 H-Thymidine per well. The samples were incubated for another 4 hours. The cells in each well were then harvested using a Skatron Harvester and counted in a beta liquid scintillation counter (LKB).

[2] = test system: resistant L1210 murine leukemia cells; test: Multiple drug resistance, 3H-Thymidine uptake; type: cell-based; conditions: Mus musculus, L1210, read-out: IC50 in Resistant Cells
Protocol: as §1, §2, §3, §4

Structure (SMILES): COc1cccc2c1C(=O)c1c(O)c3c(c(O)c1C2=O)C[C@@](O)(C(C)=O)C[C@@H]3O[C@H]1C[C@H](N)[C@H](O)[C@H](C)O1 [Daunorubicin]
- IC50 [1]: 0.47 µg/mL
- IC50 [2]: 0.722 µg/mL

From US5683714A, “Liposomal cyclosporin pharmaceutical formulation” (NeXstar Pharmaceuticals, Inc., priority 1995, dated 1997)
